Where a name gives a salt, the structure may show the parent alone.
target: Sigma receptor (Cavia porcellus); assay: Binding assay for the sigma receptor sites is performed by utilizing [3H]N,N-di-o-tolylguanidine ([3H]DTG) and guinea pig brain membrane suspensions

| Structure (SMILES) | IC50 [nM] |
| --- | --- |
| CCc1cccc(N(C)C(N)=Nc2cc(Br)cc([S+](C)[O-])c2Br)c1 (configuration not stated) | 1950 |
| CCc1cccc(N(C)C(N)=Nc2cc(SC)cc(CC)c2Br)c1 | 299 |
| CCc1cccc(N(C)C(N)=Nc2cccc(Cl)c2Cl)c1 [N'-(2,3-Dichloro-phenyl)-N-(3-ethyl-phenyl)-N-methyl-guanidine; hydrochloride] | 97 |
| CCc1cccc(N(C)C(N)=Nc2cc(Br)cc(CC)c2Br)c1 [N'-(2,5-Dibromo-3-ethyl-phenyl)-N-(3-ethyl-phenyl)-N-methyl-guanidine; hydrochloride] | 40 |
| CCc1cccc(N(C)C(N)=Nc2cc(Br)cc(S(C)(=O)=O)c2Br)c1 [N'-(2,5-Dibromo-3-methanesulfonyl-phenyl)-N-(3-ethyl-phenyl)-N-methyl-guanidine; hydrochloride] | 3380 |
| CCc1cccc(N(C)C(N)=Nc2cc(Br)cc(OC(F)(F)F)c2Br)c1 [N'-(2,5-Dibromo-3-trifluoromethoxy-phenyl)-N-(3-ethyl-phenyl)-N-methyl-guanidine; hydrochloride] | 113 |
| CCc1cccc(N(C)C(N)=Nc2cc(Br)cc(C(F)(F)F)c2Br)c1 [N'-(2,5-Dibromo-3-trifluoromethyl-phenyl)-N-(3-ethyl-phenyl)-N-methyl-guanidine; hydrochloride] | 224 |
| CCc1cccc(N(C)C(N)=Nc2cc(Cl)cc(SC)c2Cl)c1 [N'-(2,5-Dichloro-3-methylsulfanyl-phenyl)-N-(3-ethyl-phenyl)-N-methyl-guanidine; hydrochloride] | 130 |
| CCc1cccc(N(C)C(N)=Nc2cc(Cl)cc(C(F)(F)F)c2Cl)c1 [N'-(2,5-Dichloro-3-trifluoromethyl-phenyl)-N-(3-ethyl-phenyl)-N-methyl-guanidine; hydrochloride] | 110 |
| CCc1cccc(N(C)C(N)=Nc2cc(Cl)ccc2Cl)c1 [N'-(2,5-Dichloro-phenyl)-N-(3-ethyl-phenyl)-N-methyl-guanidine; hydrochloride] | 29 |
| CCc1cccc(N(C)C(N)=Nc2cc(CC)cc(CC)c2Br)c1 [N'-(2-Bromo-3,5-diethyl-phenyl)-N-(3-ethyl-phenyl)-N-methyl-guanidine; hydrochloride] | 203 |
| CCc1cccc(N(C)C(N)=Nc2cc(C(F)(F)F)cc(CC)c2Br)c1 [N'-(2-Bromo-3-ethyl-5-trifluoromethyl-phenyl)-N-(3-ethyl-phenyl)-N-methyl-guanidine; hydrochloride] | 205 |
| CCc1cccc(N(C)C(N)=Nc2cc(CC)cc(SC)c2Br)c1 [N'-(2-Bromo-5-ethyl-3-methylsulfanyl-phenyl)-N-(3-ethyl-phenyl)-N-methyl-guanidine; hydrochloride] | 180 |
| CCc1cccc(N(C)C(N)=Nc2cc(CC)cc(OC(F)(F)F)c2Br)c1 [N'-(2-Bromo-5-ethyl-3-trifluoromethoxy-phenyl)-N-(3-ethyl-phenyl)-N-methyl-guanidine; hydrochloride] | 261 |
| CCc1cccc(N(C)C(N)=Nc2cc(CC)cc(C(F)(F)F)c2Br)c1 [N'-(2-Bromo-5-ethyl-3-trifluoromethyl-phenyl)-N-(3-ethyl-phenyl)-N-methyl-guanidine; hydrochloride] | 221 |
| CCc1cccc(N(C)C(N)=Nc2ccccc2Br)c1 [N'-(2-Bromo-phenyl)-N-(3-ethyl-phenyl)-N-methyl-guanidine; hydrochloride] | 125 |
| CCc1cccc(N(C)C(N)=Nc2cc(CC)cc(CC)c2Cl)c1 [N'-(2-Chloro-3,5-diethyl-phenyl)-N-(3-ethyl-phenyl)-N-methyl-guanidine; hydrochloride] | 112 |
| CCc1cccc(N(C)C(N)=Nc2cc(C)cc(CC)c2Cl)c1 [N'-(2-Chloro-3-ethyl-5-methyl-phenyl)-N-(3-ethyl-phenyl)-N-methyl-guanidine; hydrochloride] | 45 |
| CCc1cccc(N(C)C(N)=Nc2cc(C(F)(F)F)cc(CC)c2Cl)c1 [N'-(2-Chloro-3-ethyl-5-trifluoromethyl-phenyl)-N-(3-ethyl-phenyl)-N-methyl-guanidine; hydrochloride] | 115 |
| CCc1cccc(N(C)C(N)=Nc2cc(CC)cc(SC)c2Cl)c1 [N'-(2-Chloro-5-ethyl-3-methylsulfanyl-phenyl)-N-(3-ethyl-phenyl)-N-methyl-guanidine; hydrochloride] | 178 |
| CCc1cccc(N(C)C(N)=Nc2cc(CC)cc(C(F)(F)F)c2Cl)c1 [N'-(2-Chloro-5-ethyl-3-trifluoromethyl-phenyl)-N-(3-ethyl-phenyl)-N-methyl-guanidine; hydrochloride] | 200 |

| Structure (SMILES) | IC50 [nM] |
| --- | --- |
| CCc1cccc(N(C)C(N)=Nc2ccccc2Cl)c1 [N'-(2-Chloro-phenyl)-N-(3-ethyl-phenyl)-N-methyl-guanidine; hydrochloride] | 72 |
| CCc1cccc(N(C)C(N)=Nc2ccc(Cl)c(Cl)c2)c1 [N'-(3,4-Dichloro-phenyl)-N-(3-ethyl-phenyl)-N-methyl-guanidine; hydrochloride] | 39 |
| CCc1cccc(N(C)C(N)=Nc2cc(CC)cc(CC)c2F)c1 [N'-(3,5-Diethyl-2-fluoro-phenyl)-N-(3-ethyl-phenyl)-N-methyl-guanidine; hydrochloride] | 113 |
| CCc1cccc(N(C)C(N)=Nc2cccc(Br)c2)c1 [N'-(3-Bromo-phenyl)-N-(3-ethyl-phenyl)-N-methyl-guanidine; hydrochloride] | 40 |
| CCc1cccc(N(C)C(N)=Nc2cccc(Cl)c2)c1 [N'-(3-Chloro-phenyl)-N-(3-ethyl-phenyl)-N-methyl-guanidine; hydrochloride] | 44 |
| CCc1cccc(N(C)C(N)=Nc2ccc(Cl)cc2)c1 [N'-(4-Chloro-phenyl)-N-(3-ethyl-phenyl)-N-methyl-guanidine; hydrochloride] | 46 |
| CCc1cccc(NC(N)=Nc2cccc(Cl)c2Cl)c1 [N-(2,3-Dichloro-phenyl)-N'-(3-ethyl-phenyl)-guanidine; hydrochloride] | 13 |
| CCc1cccc(NC(N)=Nc2ccc(Cl)cc2Cl)c1 [N-(2,4-Dichloro-phenyl)-N'-(3-ethyl-phenyl)-guanidine; hydrochloride] | 37 |
| CCc1cccc(N(C)C(=N)N(C)c2cc(Br)ccc2Br)c1 [N-(2,5-Dibromo-phenyl)-N'-(3-ethyl-phenyl)-N,N'-dimethyl-guanidine; hydrochloride] | 381 |
| CCc1cccc(NC(N)=Nc2cc(Cl)ccc2Cl)c1 [N-(2,5-Dichloro-phenyl)-N'-(3-ethyl-phenyl)-guanidine; hydrochloride] | 12 |
| CCc1cccc(NC(N)=Nc2c(Cl)cccc2Cl)c1 [N-(2,6-Dichloro-phenyl)-N'-(3-ethyl-phenyl)-guanidine; hydrochloride] | 14 |
| CCc1cccc(NC(N)=Nc2ccccc2CC)c1 [N-(2-Ethyl-phenyl)-N'-(3-ethyl-phenyl)-guanidine; hydrochloride] | 19 |
| CCc1cccc(NC(N)=Nc2ccc(Cl)c(Cl)c2)c1 [N-(3,4-Dichloro-phenyl)-N'-(3-ethyl-phenyl)-guanidine; hydrochloride] | 32 |
| CCc1cccc(NC(N)=Nc2cc(Cl)cc(Cl)c2)c1 [N-(3,5-Dichloro-phenyl)-N'-(3-ethyl-phenyl)-guanidine; hydrochloride] | 70 |
| CCc1cc(CC)cc(N=C(N)Nc2cccc(CC)c2)c1 [N-(3,5-Diethyl-phenyl)-N'-(3-ethyl-phenyl)-guanidine; hydrochloride] | 8 |
| CCc1cccc(NC(N)=Nc2cccc(Br)c2)c1 [N-(3-Bromo-phenyl)-N'-(3-ethyl-phenyl)-guanidine; hydrochloride] | 10 |
| CCc1cccc(NC(N)=Nc2cccc(Cl)c2)c1 [N-(3-Chloro-phenyl)-N'-(3-ethyl-phenyl)-guanidine; hydrochloride] | 27 |
| CCc1cccc(N(C)C(N)=Nc2ccccc2C(C)C)c1 [N-(3-Ethyl-phenyl)-N'-(2-isopropyl-phenyl)-N-methyl-guanidine; hydrochloride] | 362 |
| CCc1cccc(NC(N)=Nc2ccccc2C(C)C)c1 [N-(3-Ethyl-phenyl)-N'-(2-isopropyl-phenyl)-guanidine; hydrochloride] | 21 |
| CCc1cccc(NC(N)=Nc2ccccc2C)c1 [N-(3-Ethyl-phenyl)-N'-o-tolyl-guanidine; hydrochloride] | 11 |
| CCc1cccc(N(C)C(N)=Nc2cccc(SC)c2)c1 [N-(3-Ethyl-phenyl)-N-methyl-N'-(3-methylsulfanyl-phenyl)-guanidine; hydrochloride] | 164 |

Reference: BindingDB's records for doi:10.1021/jm970459c (Cambridge Neuroscience, 1998)
